Assay results reported in the supplement of paper PMC10307832.

Key:
Assay in all cases: relative viability (nuclei count vs DMSO), 5 days (fraction); higher = more cells survive
[1] = compound: C[As](C)SC[C@H](NC(=O)CC[C@H](N)C(=O)O)C(=O)NCC(=O)O [Darinaparsin]
In short: (§1)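 Five library-drug doses, separated by factors of √10, were pinned into 1536-well plates holding lung cancer cell lines after an overnight stay at 37 °C. Cells were fixed, permeabilised and Hoechst-stained in one step after 5 days without medium change, then imaged at 4×. Viability compares treated-well with vehicle-well nuclei, counted in MetaXpress, as a median across plates. Passing plates had control CV below 25% and at least one doubling.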

[2] = compound: C1CC2=C(C1)C=C(C=C2)OC3=NC(=C4C(=N3)N(C=N4)CC5=CC=C(C=C5)C6=CC=CC=C6)N[C@@H](CC7=CC=CC=C7)CO [QS11]
In short: as §1

[3] = compound: CC1=C(C=C(C=C1)NC(=O)C2=CC(=CC=C2)C(C)(C)C#N)NC3=CC4=C(C=C3)N=CN(C4=O)C [AZ628]
In short: as §1

[4] = compound: C[As](C)SC[C@H](NC(=O)CC[C@H](N)C(=O)O)C(=O)NCC(=O)O [Darinaparsin] + Nc1nc2[nH]cc(CCc3ccc(C(=O)N[C@@H](CCC(=O)O)C(=O)O)cc3)c2c(=O)[nH]1 [Pemetrexed] (partner 0.2 µM)
In short: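 Relative viability is defined as nuclei in treated wells over nuclei in vehicle wells. Duplicate plates were run and medians reported. Lung cancer cell lines in 1536-well plates were dosed by pin tool one day after seeding, with one drug or with a fixed anchor-drug dose plus five library-drug doses (not always all listed) in √10 steps, and nuclei were counted after 5 days.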

Cell Line: LCLC-97TM1
- relative viability ([1]; 0.08 µM): 1.13
- relative viability ([1]; 0.8 µM): 0.834
- relative viability ([1]; 2.53 µM): 1
- relative viability ([1]; 8 µM): 1.02
- relative viability ([2]; 0.253 µM): 1.15
- relative viability ([2]; 2.53 µM): 0.998
- relative viability ([2]; 8 µM): 0.84
- relative viability ([3]; 0.08 µM): 1.17
- relative viability ([3]; 0.253 µM): 0.849
- relative viability ([3]; 0.8 µM): 0.765
- relative viability ([3]; 2.53 µM): 0.761
- relative viability ([3]; 8 µM): 0.199
- relative viability ([4]; first compound 0.08 µM): 0.162
- relative viability ([4]; first compound 0.8 µM): 0.177
- relative viability ([4]; first compound 2.53 µM): 0.166
- relative viability ([4]; first compound 8 µM): 0.185
